What was measured:
MTOR = test: RT-qPCR of MTOR expression after miRNA mimic transfection; format: cell-based, human; settings: African American and European American prostate cancer cells; vs nonsense/scrambled (NS) miRNA control
Method: […] RC77 T/E, a primary prostate cancer cell line derived from a patient, was kindly provided by Dr. Johng Rhim at Center for Prostate Disease Research (CPDR) in Rockville, MD. LNCaP and PC-3 were served as prostate cancer cell line models, and RC77 T/E and MDA PCa 2b were served as prostate cancer cell models in the study. The cells were cultured in specific cell culture media, LNCaP was cultured in RPMI with 10% fetal bovine serum (FBS), PC-3 was cultured in DMEM with 10% FBS, MDA PCa 2b were cultured in BRFF-HPC1 with 20% FBS and RC77 T/E was cultured in Keratinocyte SFM with Human Recombinant Epidermal Growth Factor (EGF 1-53) and Bovine Pituitary Extract (BPE). Cells were maintained at 37° C. in a 5% CO2 incubator. LNCaP, PC-3 and MDA PCa 2b cells were seeded at density 3×10^4 cells/well in 6-well plates. RC77 T/E cells were seeded at density 5×10^4 cells/well in 6-well plates. […]
For the measurement of gene expression level, total RNA was isolated using miRNeasy Mini Kit (50) (Qiagen) from the prostate cancer cells used in the study. Quantification of total RNA samples were done using NanoVue Plus spectrophotometer (GE Healthcare). […] Reverse transcription was performed using iScript Reverse Transcription Supermix kit (Bio-Rad) to generate cDNA then followed by performing quantitative PCR (qPCR) assays using SsoAdvanced Universal SYBR Green supermix kit (Bio-Rad). […]

[1] = tested on: cancer cell lines (HT-29, SW620, MDA MB 231, MCF-7, A549, and H1299); test: TUNEL assay; format: cell-based, human; settings: mimic vs NS transfected cancer cells; 48 h
Method: TUNEL assay was carried out according to the manufacturer's protocol (Click-iT™ Plus In-situ Apoptosis Detection with Alexa Fluor Dyes, Thermo Fisher Scientific). Precisely, 4×10^4 cells (HT-29, SW620, MDA MB 231, MCF-7, A549, and H1299) were seeded on coverslips and allowed to adhere for 24 h in 5% CO2 incubator at 37° C. These cells were fixed in 4% paraformaldehyde in 1×PBS after exposure of miR-99b-5p mimic or negative control mimic for 48 h, then washed with PBS three times followed by the incubation with 0.25% Triton X-100 in 1×PBS and ultimately the cells were incubated with differential steps of TUNEL reaction mixture as per the manufacturer's protocol. Lastly, the processed cells were counterstained with DAPI for 5 min, at room temperature in the dark. All labeled and/or prepared cells were mounted on glass slides and were visualized by Olympus BX3 fluorescence microscope (Olympus). Cell images were captured from 3-4 random areas at 10× magnification by using CellSens V1.18 software (Olympus).

miR-99b-5p mimic: miRNA mimic of miR-99b-5p (SEQ ID NO: 2, CACCCGUAGAACCGACCUUGCG), purchased from Ambion (listed as RNA, chemistry not given here; listed as Homo sapiens)
MTOR expression (RT-qPCR) (MTOR): decreased | DNA breakages (TUNEL red fluorescent signals in nuclei) [1]: enhanced
